The source of these data is patent US20110082130A1 (LIGAND PHARMACEUTICALS, INC., priority 2006, published 2011).

For the first assay, the target named is T1, chimeric human H3 receptor (Homo sapiens, UniProt Q9Y5N1).
T1 construct: made in house; host or cells: Sf9 insect cells (baculovirus); P2 membrane preparation
T1 sequence (Q9Y5N1 with tags, fused parts or gaps): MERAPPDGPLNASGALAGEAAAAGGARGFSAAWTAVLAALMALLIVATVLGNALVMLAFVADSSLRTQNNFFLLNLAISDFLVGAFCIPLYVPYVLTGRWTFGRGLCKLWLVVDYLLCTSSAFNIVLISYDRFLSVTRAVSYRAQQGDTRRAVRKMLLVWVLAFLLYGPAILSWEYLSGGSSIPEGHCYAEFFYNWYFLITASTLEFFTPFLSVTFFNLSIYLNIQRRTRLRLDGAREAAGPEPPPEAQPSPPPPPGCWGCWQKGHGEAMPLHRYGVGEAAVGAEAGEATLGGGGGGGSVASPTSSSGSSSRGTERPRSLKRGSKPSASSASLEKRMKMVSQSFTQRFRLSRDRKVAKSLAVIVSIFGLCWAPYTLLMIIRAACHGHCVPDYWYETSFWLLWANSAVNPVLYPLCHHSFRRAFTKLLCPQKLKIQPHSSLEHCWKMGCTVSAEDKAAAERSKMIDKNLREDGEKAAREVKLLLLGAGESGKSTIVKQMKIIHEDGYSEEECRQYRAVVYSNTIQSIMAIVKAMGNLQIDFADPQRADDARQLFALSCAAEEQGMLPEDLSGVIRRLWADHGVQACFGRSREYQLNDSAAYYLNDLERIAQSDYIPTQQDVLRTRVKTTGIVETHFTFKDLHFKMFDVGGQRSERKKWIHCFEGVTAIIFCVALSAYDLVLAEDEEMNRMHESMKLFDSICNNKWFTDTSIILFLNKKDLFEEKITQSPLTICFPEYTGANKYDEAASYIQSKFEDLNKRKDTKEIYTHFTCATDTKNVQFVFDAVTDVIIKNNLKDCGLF
The experiment in a line: Chimeric human H3 receptor GTP binding assay (agonist-stimulated GTP-gamma35S binding, Example 7). Type of assay: biochemical. The settings on record: Table II "Ki", symbol *; assay of Example 7. The essentials: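 Sf9 membranes co-expressing chimeric human H3 receptor and heterotrimeric G-protein, 35 μg/tube, in pH 7.4 Tris buffer with 10 μM GDP. Test compounds (10^−10–10^−6 M) competed against 1 μM histamine, […] GTP-gamma35S, 60 min at room temperature. Filter-bound radioactivity counted; IC50 converted to Ki by Cheng-Prusoff. Agonism/inverse agonism tested without histamine (EC50).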
Turning to `CCCOc1ccc(-c2ccc3c(c2)CCN(CC(=O)N2CCN(C4CCCC4)CC2)C3)cc1` [Compound 545, 2-[2-(4-cyclopentylpiperazin-1-yl)-2-oxoethyl]-6-(4-propoxyphenyl)-1,2,3,4-tetrahydroisoquinoline], the Ki is less than 1000 nM.

Still in this assay, the particulars now being: Table II; "*" = Ki in assay of Example 7 less than 1 micromolar.
For the molecule `CCC1CCC[C@H]2CN(C(=O)CN3CCc4cc(Br)ccc4C3)CCN12` (stereo in doubt) [Compound 162, 2-[(6-bromo-3,4-dihydroisoquinolin-2(1H)-yl)acetyl]-6-ethyloctahydro-2H-pyrido[1,2-a]pyrazine], the Ki was less than 1000 nM.

Staying with this assay, now noted: assay of Example 7; "*" in Ki of Table II.
On to `COc1ccc(-c2nc3c(s2)CN(CC(=O)N2CCN(C4CCC4)CC2)CC3)c(C)c1` [Compound 335, 5-[2-(4-cyclobutylpiperazin-1-yl)-2-oxoethyl]-2-(4-methoxy-2-methylphenyl)-4,5,6,7-tetrahydro[1,3]thiazolo [5,4-c]pyridine], for which the Ki was less than 1000 nM.

The target in another assay is T1, chimeric human H3 receptor. The experiment in a line: Chimeric human H3 receptor screening GTP binding assay (inhibition of histamine-stimulated GTP-gamma35S binding, Example 8). The assay is classed as biochemical. The settings on record: 4 μM of the compound, 1 μM histamine, "†" in Ki of Table II, read-out: percent inhibition of the signal obtained with 1 μM histamine. As for the experimental part:
This Example illustrates a representative screening assay for evaluating inhibition of histamine-stimulated GTP-gamma^35S binding. Such GTP binding activity can be used to identify H3 antagonists and inverse agonists. A compound analyzed in this assay is referred to herein as a “test compound,” and the initial identification of antagonists and inverse agonists is performed using a test compound concentration of 4 μM.
Four independent baculoviral stocks (one directing the expression of the chimeric human H3 receptor and three directing the expression of each of the three subunits of a heterotrimeric G-protein) are used to infect a culture of Sf9 cells as described above. P2 membranes are prepared as described above, and are resuspended by Dounce homogenization (tight pestle) in GTP binding assay buffer (50 mM Tris pH 7.4, 120 mM NaCl, 5 mM MgCl2, 2 mM EGTA, 1 mg/ml BSA, 0.2 mg/ml bacitracin, 0.02 mg/ml aprotinin, 0.01 mg/ml saponin, 10 μM GDP) and added to assay tubes at a concentration of 35 μg protein/reaction tube. Non-radiolabeled test compounds are added to separate reactions at a concentration of 4 μM along with 1 μM histamine (agonist). Reactions are initiated by the addition of […] GTP-gamma^35S with a final assay volume of 0.20 ml.
After a 60-min incubation at room temperature, reactions are terminated by vacuum filtration over GF/C filters (pre-soaked in 50 mM Tris pH 7.4, 120 mM NaCl plus 0.1% BSA) followed by washing with ice-cold buffer (50 mM Tris pH 7.4, 120 mM NaCl). The amount of receptor-bound (and thereby membrane-bound) GTP-gamma^35S is determined by measuring the bound radioactivity, preferably by liquid scintillation spectrometry of the washed filters. Non-specific binding is determined using 10 uM GTP-gammaS and typically represents less than 5 percent of total binding. After subtraction of non-specific binding, data is expressed as percent inhibition of 1 μM histamine signal.
Neutral antagonists are those test compounds that reduce the histamine-stimulated GTP binding activity towards, but not below, baseline levels. In contrast, in the absence of added histamine, inverse agonists reduce the GTP binding activity of the receptor-containing membranes below baseline. Any test compound that elevates GTP binding activity above baseline in the absence of added histamine in this assay is defined as having agonist activity.
Background: Binding of GTPγS marks nucleotide exchange on a G protein.
Consider `Cc1ccc(-c2ccc3c(c2)CCN(CC(=O)N2CCN(C4CCCCC4)CC2)C3)cc1F` [Compound 428, 2-[2-(4-cyclohexylpiperazin-1-yl)-2-oxoethyl]-6-(3-fluoro-4-methylphenyl)-1,2,3,4-tetrahydroisoquinoline], for which the inhibition at 4 µM was no less than 90%. `Cc1ccc(-c2ccc3c(c2)CCN(CC(=O)N2CCN(C4CCC4)CC2)C3)cc1C` [Compound 447, 2-[2-(4-cyclobutylpiperazin-1-yl)-2-oxoethyl]-6-(3,4-dimethylphenyl)-1,2,3,4-tetrahydroisoquinoline]: the inhibition at 4 µM was no less than 90%.

Regarding `CCc1cccc(-c2ccc3c(c2)CCN(CC(=O)N2CCN(C4CCC4)CC2)C3)c1` [Compound 467, 2-[2-(4-cyclobutylpiperazin-1-yl)-2-oxoethyl]-6-(3-ethylphenyl)-1,2,3,4-tetrahydroisoquinoline], the inhibition at 4 µM is no less than 90%. For `Cc1ccc(-c2ccc3c(c2)CCN(CC(=O)N2CCN(C(C)C)CC2)C3)cc1` [Compound 438, 2-[2-(4-isopropylpiperazin-1-yl)-2-oxoethyl]-6-(4-methylphenyl)-1,2,3,4-tetrahydroisoquinoline], the inhibition at 4 µM is no less than 90%.

`Cc1ccc(-c2ccc3c(c2)CCN(CC(=O)N2CCN(C4CCCC4)CC2)C3)cc1C` [Compound 448, 2-[2-(4-cyclopentylpiperazin-1-yl)-2-oxoethyl]-6-(3,4-dimethylphenyl)-1,2,3,4-tetrahydroisoquinoline]: the inhibition at 4 µM is no less than 90%.

For the molecule `Cc1cccc(-c2ccc3c(c2)CCN(CC(=O)N2CCN(C4CCCC4)CC2)C3)c1` [Compound 433, 2-[2-(4-cyclopentylpiperazin-1-yl)-2-oxoethyl]-6-(3-methylphenyl)-1,2,3,4-tetrahydroisoquinoline], the inhibition at 4 µM is no less than 90%.

`CC(C)c1cccc(-c2ccc3c(c2)CCN(CC(=O)N2CCN(C(C)C)CC2)C3)c1` [Compound 442, 6-(3-isopropylphenyl)-2-[2-(4-isopropylpiperazin-1-yl)-2-oxoethyl]-1,2,3,4-tetrahydroisoquinoline]: the inhibition at 4 µM was no less than 90%.

Still in this assay, the particulars now being: Table II "Ki", symbol †, 4 μM of the compound, 1 μM histamine, read-out: percent inhibition of the signal obtained with 1 μM histamine.
With `CN(C)c1cccc(-c2ccc3c(c2)CCN(CC(=O)N2CCN(C4CCCC4)CC2)C3)c1` [Compound 537, 3-{2-[2-(4-cyclopentylpiperazin-1-yl)-2-oxoethyl]-1,2,3,4-tetrahydroisoquinolin-6-yl}-N,N-dimethylaniline], the inhibition at 4 µM is no less than 90%. For `COc1cc(-c2ccc3c(c2)CCN(CC(=O)N2CCN(C(C)C)CC2)C3)cc(OC)c1OC` [Compound 519, 2-[2-(4-isopropylpiperazin-1-yl)-2-oxoethyl]-6-(3,4,5-trimethoxyphenyl)-1,2,3,4-tetrahydroisoquinoline], the inhibition at 4 µM is no less than 90%. Turning to `O=C(CN1CCc2cc(-c3ccc(F)c(Cl)c3)ccc2C1)N1CCN(C2CCC2)CC1` [Compound 579, 6-(3-chloro-4-fluorophenyl)-2-[2-(4-cyclobutylpiperazin-1-yl)-2-oxoethyl]-1,2,3,4-tetrahydroisoquinoline], the inhibition at 4 µM was no less than 90%. The same measure, in the same setting: in the case of `CCOc1ccc(-c2ccc3c(c2)CCN(CC(=O)N2CCN(C(C)C)CC2)C3)cc1` [Compound 531, 6-(4-ethoxyphenyl)-2-[2-(4-isopropylpiperazin-1-yl)-2-oxoethyl]-1,2,3,4-tetrahydroisoquinoline] it was no less than 90%; in that of `CC(C)CN1CCN(C(=O)CN2CCc3cc(-c4cncnc4)ccc3C2)CC1` [Compound 605, 2-[2-(4-isobutylpiperazin-1-yl)-2-oxoethyl]-6-pyrimidin-5-yl-1,2,3,4-tetrahydroisoquinoline], no less than 90%; in that of `CC(C)N1CCN(C(=O)CN2CCc3cc(-c4ccc(N(C)C)cc4)ccc3C2)CC1` [Compound 535, 4-{2-[2-(4-isopropylpiperazin-1-yl)-2-oxoethyl]-1,2,3,4-tetrahydroisoquinolin-6-yl}-N,N-dimethylaniline], no less than 90%.

Consider `COc1ccc(-c2ccc(-c3ccc4c(c3)CCN(CC(=O)N3CCN(C5CCCCC5)CC3)C4)cc2)cc1` [Compound 500, 2-[2-(4-cyclohexylpiperazin-1-yl)-2-oxoethyl]-6-(4′-methoxybiphenyl-4-yl)-1,2,3,4-tetrahydroisoquinoline], for which the inhibition at 4 µM was no less than 90%. On the same count and under the same terms, in the case of `O=C(CN1CCc2cc(-c3ccc(Cl)c(Cl)c3)ccc2C1)N1CCN(C2CCCC2)CC1` [Compound 595, 2-[2-(4-cyclopentylpiperazin-1-yl)-2-oxoethyl]-6-(3,4-dichlorophenyl)-1,2,3,4-tetrahydroisoquinoline] it was no less than 90%; in that of `O=C(CN1CCc2cc(-c3ccc(F)cc3F)ccc2C1)N1CCN(C2CCCCC2)CC1` [Compound 588, 2-[2-(4-cyclohexylpiperazin-1-yl)-2-oxoethyl]-6-(2,4-difluorophenyl)-1,2,3,4-tetrahydroisoquinoline], no less than 90%; in that of `COc1cc(-c2ccc3c(c2)CCN(CC(=O)N2CCN(C4CCCCC4)CC2)C3)cc(OC)c1OC` [Compound 518, 2-[2-(4-cyclohexylpiperazin-1-yl)-2-oxoethyl]-6-(3,4,5-trimethoxyphenyl)-1,2,3,4-tetrahydroisoquinoline], no less than 90%. For `COc1ccc(-c2ccc3c(c2)CCN(CC(=O)N2CCN(C4CCCCC4)CC2)C3)c(OC)c1` [Compound 565, 2-[2-(4-cyclohexylpiperazin-1-yl)-2-oxoethyl]-6-(2,4-dimethoxyphenyl)-1,2,3,4-tetrahydroisoquinoline], the inhibition at 4 µM is no less than 90%.

In the case of `CN(C)c1cccc(-c2ccc3c(c2)CCN(CC(=O)N2CCN(C4CCCCC4)CC2)C3)c1` [Compound 538, 3-{2-[2-(4-cyclohexylpiperazin-1-yl)-2-oxoethyl]-1,2,3,4-tetrahydroisoquinolin-6-yl}-N,N-dimethylaniline], the inhibition at 4 µM is no less than 90%.

As for `O=C(CN1CCc2cc(-c3cc(F)ccc3F)ccc2C1)N1CCN(C2CCC2)CC1` [Compound 582, 2-[2-(4-cyclobutylpiperazin-1-yl)-2-oxoethyl]-6-(2,5-difluorophenyl)-1,2,3,4-tetrahydroisoquinoline], the inhibition at 4 µM was no less than 90%.

For the molecule `CC(C)N1CCN(C(=O)CN2CCc3cc(-c4cc(F)ccc4F)ccc3C2)CC1` [Compound 585, 6-(2,5-difluorophenyl)-2-[2-(4-isopropylpiperazin-1-yl)-2-oxoethyl]-1,2,3,4-tetrahydroisoquinoline], the inhibition at 4 µM was no less than 90%.

Consider `O=C(CN1CCc2cc(-c3cc(F)ccc3F)ccc2C1)N1CCN(C2CCCCC2)CC1` [Compound 584, 2-[2-(4-cyclohexylpiperazin-1-yl)-2-oxoethyl]-6-(2,5-difluorophenyl)-1,2,3,4-tetrahydroisoquinoline], for which the inhibition at 4 µM was no less than 90%. In the case of `O=C(CN1CCc2cc(-c3cccc(F)c3F)ccc2C1)N1CCN(C2CCCC2)CC1` [Compound 600, 2-[2-(4-cyclopentylpiperazin-1-yl)-2-oxoethyl]-6-(2,3-difluorophenyl)-1,2,3,4-tetrahydroisoquinoline], the inhibition at 4 µM is no less than 90%.

What is called Ki is a dissociation constant, usually derived from enzyme kinetics or from competition with a known ligand. A word on the inhibition: it is the relative decrease from the control value, in per cent.
